Common to all, as to format: cell-based
Series [1] has as its system Adipocytes (method: 3T3-L1 adherent cells). The series can be described thus: Calcein-AM cytotoxicity / cell viability assay. The method, then: Cytotoxicity Assay in Adherent Cells (3T3-L1) using the Calcein-AM Method:
[…] […] […] Then, the wells were washed and the cells incubated with Calcein-AM (1 μM) (Molecular Probes) for 30 min. Then the fluorescence of viable cells was detected in a microtitre plate reader (TECAN Genius Pro). Using this method the uptake of Calcein-AM by viable cells is measured. Calcein-AM his hydrolysed by cellular esterases and then the fluorescence emitted by calcein is detected in the plate reader (excitation: 490 nm, emission: 515 nm)
[…] In this type of assay the higher RFU (relative fluorescent unit) correspond to viable cells.

For series [2], the system named is Primary human preadipocytes. The series can be described thus: LDH release cytotoxicity assay (CytoTox-ONE) in undifferentiated preadipocytes. The method, then:
(§1) Primary human preadipocytes were obtained from Promocell (Heidelberg, Germany). The Order No is C-12731 and the Lot-No 5112201 (abdomen, person).
Human preadipocytes cells were maintained in Preadipocyte Growth Medium (DMEM; BioWhitaker Cat: BE12-604F/U1; Lot N° 6MB0130 containing 10% heat-inactivated FCS and 1% penicillin-streptomycin) at 37° C. in a humidified atmosphere of 5% CO2. The cells were expanded in several T75 flasks to reach 60-80% confluence. To differentiate the preadipocytes (10^4 cells/well) were grown in 96 well plates to reach confluence. At this point (day 0), cells were switched to differentiation medium (DMEM, 10% FBS, 0.25 μM dexamethasone, 0.25 mM IBMX, and […] insulin) for 3 days, with one medium change in between. On day 3, the dexamethasone and IBMX was removed leaving insulin on the cells for an additional 4 days, changing the medium every 2 days. Thereafter, the cells were maintained in the original propagation DMEM, changing medium every 2-3 days until use. Plates where cells are >75% differentiated were used for experiments (day 10 post-induction). […]
Cytotoxicity assays: The CytoTox-ONE™ Homogeneous Membrane Integrity Assay from Promega was used to study LDH release (The Lot-No 234242/27/09/08). Differentiated adipocytes were treated with the test compounds for either 24 or 48 hours and the release of LDH detected using the fluorimetric assay CytoTox-ONE (see above) according to the manufacturer's instructions. Maximum LDH release was determined by complete lysis of cells using 0.1% Triton X-100. […] The fluorescence was detected in a Genius Pro apparatus using specific 96 microwells plates for fluorescence. […]
(§2) The percentages cytotoxicity by LDH release were calculated according to the manufacturer's instruction (http://www.promega.com/tbs/tb306/tb306.pdf)
(§3) According to this calculation the spontaneous release in untreated cells may indicate some cytotoxicity in untreated cells. […] This type of calculation may induce to misinterpretations and therefore the specific cytotoxicity was calculated according to the following formula: […]
On the technique in general: Release of lactate dehydrogenase indicates damage to the cell membrane.

Series [3] has as its system differentiated human primary adipocytes. The series can be described thus: LDH release cytotoxicity assay (CytoTox-ONE) in differentiated adipocytes. The method, then:
as §1
Human preadipocytes cells were maintained in Preadipocyte Growth Medium (DMEM; BioWhitaker Cat: BE12-604F/U1; Lot N° 6MB0130 containing 10% heat-inactivated FCS and 1% penicillin-streptomycin) at 37° C. in a humidified atmosphere of 5% CO2. The cells were expanded in several T75 flasks to reach 60-80% confluence. To differentiate the preadipocytes (10^4 cells/well) were grown in 96 well plates to reach confluence. At this point (day 0), cells were switched to differentiation medium (DMEM, 10% FBS, 0.25 μM dexamethasone, 0.25 mM IBMX, and […] insulin) for 3 days, with one medium change in between. On day 3, the dexamethasone and IBMX was removed leaving insulin on the cells for an additional 4 days, changing the medium every 2 days. Thereafter, the cells were maintained in the original propagation DMEM, changing medium every 2-3 days until use. Plates where cells are >75% differentiated were used for experiments (day 10 post-induction). Adipocytes are round and full of easily distinguishable fat globules after 7 days of culture.
Cytotoxicity assays: The CytoTox-ONE™ Homogeneous Membrane Integrity Assay from Promega was used to study LDH release (The Lot-No 234242/27/09/08). Differentiated adipocytes were treated with the test compounds for either 24 or 48 hours and the release of LDH detected using the fluorimetric assay CytoTox-ONE (see above) according to the manufacturer's instructions. Maximum LDH release was determined by complete lysis of cells using 0.1% Triton X-100. Control cells treated with water alone were used to determine the baseline level of LDH release (0% cell death). The fluorescence was detected in a Genius Pro apparatus using specific 96 microwells plates for fluorescence. We used excitation filters in the 530-570 nm range and emission filters in the 580-620 nm range.
as §2, §3
S.C. values below 0% were considered arbitrary as 0% of substance-induced cytotoxicity.
To confirm the cytotoxic activity of the test substance at certain concentrations, undifferentiated (24 h treatment) and differentiated human primary adipocytes the cultures were treated with the indicated dilutions during 24 h and 48 h and the release of LDH measured in the supernatants.

The mark [4] stands for this setting: Table 2, dilution 1:12800, 24 h.

Read-outs that look alike come from different tables or passages of the source.

On to `CCCCCCCCCCCCOS(=O)(=O)[O-].[Na+]` [sodium laurylsulfate], for which the “potency compared with the other inventive substances” value in series [1] (cytotoxicity on adipocytes) is “even more potent”. The figures for the “Adipocytes (Calcein-AM) 6 h, toxicity” value in series [1] (dilution 1:4000), in series [1] (dilution 1:16,000) and in series [1] (dilution 1:512000) were “Toxic”, “Toxic” and “Non-Toxic”, respectively. The “Adipocytes (Calcein-AM) 24 h, toxicity” value is listed as “Toxic” in series [1] (dilution 1:4000), “Toxic” in series [1] (dilution 1:16,000) and “Non-Toxic” in series [1] (dilution 1:512000).

For “polyethoxylated castor oil [Test Substance 2]”, the “Adipocytes (Calcein-AM) 24 h, toxicity” value in series [1] (dilution 1:50) was “Toxic”; in series [1] (dilution 1:100), “Toxic”; in series [1] (dilution 1:200), “Toxic”; in series [1] (dilution 1:400), “Toxic”; in series [1] (dilution 1:6400), “Non-toxic”; in series [1] (dilution 1:12800), “Non-toxic”. The “Preadipocytes (LDH) 24 h, cytotoxicity” value in series [2] (dilution 1:512, 24 h treatment) was “Toxic (32.6%)”. Further, in series [2] (dilution 1:10000, 24 h treatment), the “Preadipocytes (LDH) 24 h, toxicity” value is reported as “Non-toxic”. In series [3] (Table 1, dilution 1:512, 24 h), the “Differentiated Adipocytes (LDH) 24 h, cytotoxicity” value is reported as “Toxic (56.1%)”. Further, the “Differentiated Adipocytes (LDH) 24 h, toxicity” value in series [3] (Table 1, dilution 1:10000, 24 h) was “Non-toxic”. The “Adipocytes (LDH) 24 h, toxicity” value in series [3] (Table 2, dilution 1:50, 24 h) is “Toxic”; in series [3] (Table 2, dilution 1:100, 24 h), “Toxic”; in series [3] (Table 2, dilution 1:200, 24 h), “Toxic”; in series [3] (Table 2, dilution 1:800, 24 h) it was “Non-toxic”; in series [3] (Table 2, dilution 1:1600, 24 h), “Non-toxic”; in series [3] (Table 2, dilution 1:3200, 24 h), “Non-toxic”. For the same compound, the “Adipocytes (LDH) 24 h, toxicity” value was “Non-toxic” in series [3] (Table 2, dilution 1:6400, 24 h) and “Non-toxic” in series [3] (setting [4]). In series [3] (Table 2, dilution 1:400, 24 h), the “Adipocytes (LDH) 24 h, cytotoxicity” value is given as “Toxic (43.6%)”. Also, the “Differentiated Adipocytes (LDH) 48 h, cytotoxicity” value in series [3] (dilution 1:512, 48 h) is recorded as “Toxic (100%)”; in series [3] (dilution 1:10000, 48 h), “toxic (20.3%)”.

For the compound polysorbate 80 [Test Substance 1], the “Adipocytes (Calcein-AM) 24 h, toxicity” value in series [1] (dilution 1:50) is reported as “Toxic”; in series [1] (dilution 1:100), “Toxic”; in series [1] (dilution 1:200), “Toxic”; in series [1] (dilution 1:400), “Toxic”; in series [1] (dilution 1:800), “Toxic”; in series [1] (dilution 1:3200) it was “Non-toxic”. Further, the “Adipocytes (Calcein-AM) 24 h, toxicity” value in series [1] (dilution 1:6400) and in series [1] (dilution 1:12800) was “Non-toxic” each time. In series [2], the “Preadipocytes (LDH) 24 h, cytotoxicity” value is “Toxic (38.1%)”. Moreover, in series [3], the “Differentiated Adipocytes (LDH) 24 h, cytotoxicity” value is reported as “Toxic (42.8%)”. Further, the “Differentiated Adipocytes (LDH) 48 h, cytotoxicity” value in series [3] was “Toxic (100%)”. In addition, the “Adipocytes (LDH) 24 h, toxicity” value in series [3] (Table 2, dilution 1:50, 24 h) is on record as “Toxic”; in series [3] (Table 2, dilution 1:100, 24 h), “Toxic”; in series [3] (Table 2, dilution 1:200, 24 h) it was “Toxic”; in series [3] (Table 2, dilution 1:400, 24 h) it was “Toxic”; in series [3] (Table 2, dilution 1:800, 24 h) it was “Toxic”; in series [3] (Table 2, dilution 1:1600, 24 h), “Non-toxic”. Further, the “Adipocytes (LDH) 24 h, toxicity” value in series [3] (Table 2, dilution 1:3200, 24 h) was “Non-toxic”; in series [3] (Table 2, dilution 1:6400, 24 h), “Non-toxic”; in series [3] (setting [4]) it was “Non-toxic”.

Source of the values: patent US20100144890A1, “USE OF A SURFACTANT FOR THE PREPARATION OF A FORMULATION FOR THE TREATMENT OF ADIPOSE DISEASES” (priority 2007, published 2010).
